Results reported in PubChem BioAssay (NCI).
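Step 1: Grow cells in 96-well plates. Step 2: Expose to compound for 48 hours at 5 concentrations. Step 3: Interpolate endpoints linearly; if unreached, use highest concentration. GI50 is the concentration that inhibits growth by half. TGI: concentration producing complete growth inhibition.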

Assays:
Assay in all cases: NCI-60 cell line screen, 48 h
[1] = system: NCI-H23 lung
[2] = system: A549 NSCLC
[3] = system: UACC-62 melanoma
[4] = system: HT29 colon
[5] = system: NCI-H226 lung
[6] = system: TK-10 renal
[7] = system: UACC-257 melanoma
[8] = system: HCT-15 colon
[9] = system: A498 renal
[10] = system: SF-295 CNS
[11] = system: RXF 393 renal
[12] = system: CCRF-CEM leukemia
[13] = system: NCI-H460 lung
[14] = system: K-562 leukemia

Row | SMILES | TGI [1] [µM] | TGI [2] [µM] | TGI [3] [µM] | TGI [4] [µM] | TGI [5] [µM] | TGI [6] [µM] | TGI [7] [µM] | TGI [8] [µM] | TGI [9] [µM] | TGI [10] [µM] | TGI [11] [µM] | TGI [12] [µM] | TGI [13] [µM] | TGI [14] [µM] | GI50 [2] [µM] | GI50 [3] [µM] | GI50 [5] [µM] | GI50 [6] [µM] | GI50 [7] [µM] | GI50 [9] [µM]
1 | O=[N+]([O-])/C=C/c1cccc(F)c1 | 17.9 | > 100 | 22.5 | 10.3 | 6.05 | 14.3 | 15.8 | 5.6 | 27.4 | 30.2 | 4.32 | 5.5 | 30.4 | – | – | – | – | – | – | –
2 | CN[C@@H]1[C@H](O)[C@H](NC)[C@H]2O[C@@]3(O)C(=O)C[C@@H](C)O[C@H]3O[C@@H]2[C@H]1O | > 100 | – | > 100 | > 100 | > 100 | – | > 100 | > 100 | > 100 | > 100 | > 100 | > 100 | > 100 | > 100 | – | – | – | – | – | –
3 | Nc1nc(SCCC/C=C/B(O)O)nc2c1ncn2C1OC(CO)C(O)C1O (stereo unspecified) | > 243 | > 243 | > 243 | > 243 | > 243 | > 243 | > 243 | > 243 | > 243 | > 243 | > 243 | > 243 | > 243 | > 243 | – | – | – | – | – | –
4 | C=C(/C=C/C=C(/CCC=C(C)C)COC(C)=O)[C@@H]1CC[C@]2([C@H](CCCO)/C(=C(/C)C=O)CC[C@]2(C)O)[C@@H]1O | 35.5 | 26.2 | – | 28.4 | 19.6 | 31.3 | 32.6 | 30.4 | – | 19.6 | 33.1 | 4.97 | 24.3 | 30.2 | – | – | – | – | – | –
5 | CC1(C)[C@@H]2C[C@H]1C(Cc1ccccc1C[C@H]1c3cc(-c4ccccn4)ncc3[C@H]3C[C@@H]1C3(C)C)c1cc(-c3ccccn3)ncc12 (stereo partly specified) | > 100 | > 100 | 4.15 | > 100 | – | > 78.7 | – | > 100 | 4.89 | > 55.1 | > 25.1 | 0.899 | > 31.9 | > 100 | – | – | – | – | – | –
6 | COc1cc2c(cc1OC)C(C1(O)CCCCC1)NCC2 (stereo unspecified) | > 100 | – | > 100 | > 100 | > 100 | > 100 | > 100 | > 100 | – | > 100 | > 100 | > 100 | > 100 | > 100 | – | – | – | – | – | –
7 | C#CCCCCC#CC1CCCC1C1=CC(=O)c2ccccc21 (stereo unspecified) | 24.5 | 30 | 6.44 | 15.9 | 29.8 | 34.5 | 25.2 | 19.9 | 28.3 | 16.8 | 18.4 | – | 32.5 | 8.14 | – | – | – | – | – | –
8 | CN(C)CCNc1ccc2nnn3c4ccc(Cl)cc4c(=O)c1c23 | 18.7 | 14.1 | 18.6 | 15.9 | 5.31 | 22.1 | 17.5 | 14.8 | 11.3 | 15.7 | 13.1 | > 52.8 | 14.8 | 22.7 | – | – | – | – | – | –
9 | Cc1c(Cl)c(S(N)(=O)=O)cc(S(N)(=O)=O)c1NC(=O)c1ccc(Cl)cc1 | > 100 | > 100 | > 100 | > 100 | > 100 | > 100 | > 100 | > 100 | > 100 | > 100 | > 100 | > 100 | > 100 | > 100 | – | – | – | – | – | –
10 | NC(=O)c1nnc2cc(F)c(F)cc2c1N | > 100 | > 100 | > 100 | > 100 | 73.6 | > 100 | > 100 | > 100 | > 100 | 64.5 | – | > 100 | > 100 | > 100 | – | – | – | – | – | –
11 | NC(Cc1ccc2oc3cc(=O)c4ccccc4c-3nc2c1)C(=O)O (stereo unspecified) | 16.3 | 62.5 | 22.5 | 72.6 | 73.1 | > 97.2 | 39.3 | > 88.3 | > 84.6 | 55.5 | 99.8 | 71.1 | 32 | 77.1 | – | – | – | – | – | –
12 | Cc1ccccc1N=Nc1ccc(N=Nc2c(O)ccc3cc(S(=O)(=O)O)cc(S(=O)(=O)O)c23)c(C)c1 | > 100 | > 100 | > 100 | > 100 | > 100 | > 100 | > 100 | > 100 | – | > 100 | > 100 | > 100 | > 100 | > 100 | – | – | – | – | – | –
13 | Cc1ccc(NCCN(C)CC(C)O)c2c(=O)c3ccc(Cl)cc3sc12 (stereo unspecified) | – | > 100 | 3.48 | – | > 100 | > 100 | 3.57 | – | 8.37 | – | – | – | – | – | 4.08 | 1.85 | 5.45 | 5.08 | 1.96 | 2.31
14 | O=S(=O)(O)c1cc(O)c2c(O)c(N=Nc3ccc(/C=C/c4ccc(N=Nc5c(S(=O)(=O)O)cc6cc(S(=O)(=O)O)cc(O)c6c5O)cc4S(=O)(=O)O)c(S(=O)(=O)O)c3)c(S(=O)(=O)O)cc2c1 | > 100 | > 100 | > 100 | > 100 | > 100 | > 100 | > 100 | > 100 | > 100 | > 100 | > 100 | > 100 | > 100 | > 100 | – | – | – | – | – | –
15 | C/C=C1/CN2CC[C@@H]3c4ccccc4N4[C@H](C(=O)OC)[C@H]1C[C@H]2[C@]34/C=C/C1=COC[C@@H]2[C@H]1C[C@H]1c3c(c4ccccc4n3C)C[C@@H]2N1C | 8.43 | 8.28 | 9.29 | 5.92 | 9.16 | 7.5 | 8.51 | 7.83 | 10 | 8.18 | 7.9 | 9.49 | 7.41 | 25 | – | – | – | – | – | –
